Data published in article PMC4631608 (Journal of structural and functional genomics, 2015).

Molecular target: M. tuberculosis Rv1496 (Mycobacterium tuberculosis, UniProt P9WPZ1)
Sequence (P9WPZ1 3-336): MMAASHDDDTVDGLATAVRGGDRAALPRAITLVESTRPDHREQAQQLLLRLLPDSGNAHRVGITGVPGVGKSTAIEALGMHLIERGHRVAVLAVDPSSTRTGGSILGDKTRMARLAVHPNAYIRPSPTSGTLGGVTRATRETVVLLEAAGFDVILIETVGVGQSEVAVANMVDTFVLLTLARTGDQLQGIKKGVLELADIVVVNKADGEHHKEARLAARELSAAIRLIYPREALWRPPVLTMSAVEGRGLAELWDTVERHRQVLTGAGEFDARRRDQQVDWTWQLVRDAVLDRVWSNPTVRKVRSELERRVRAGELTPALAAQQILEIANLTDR

How did the “X-ray co-crystal structure, 2.45 Å” value turn out when `Nc1nc2c(ncn2[C@@H]2O[C@H](COP(=O)(O)OP(=O)(O)O)[C@@H](O)[C@H]2O)c(=O)[nH]1` [GDP] was run?
The value was “Rv1496 binds GDP via hydrogen bonds, one salt bridge, and van der Waals interactions”.
